Assay results: ChEMBL document CHEMBL3045165, “3D-QSAR study of multi-target-directed AchE inhibitors based on autodocking” (Med Chem Res, 2012)
pIC50: −log10 of the molar value.

Biological target: Acetylcholinesterase (Homo sapiens, UniProt P22303)
Test: Inhibition of AChE (unknown origin) using acetylthiocholine chloride as substrate after 15 min by Ellman's method

Sequence of Acetylcholinesterase (P22303 whole entry): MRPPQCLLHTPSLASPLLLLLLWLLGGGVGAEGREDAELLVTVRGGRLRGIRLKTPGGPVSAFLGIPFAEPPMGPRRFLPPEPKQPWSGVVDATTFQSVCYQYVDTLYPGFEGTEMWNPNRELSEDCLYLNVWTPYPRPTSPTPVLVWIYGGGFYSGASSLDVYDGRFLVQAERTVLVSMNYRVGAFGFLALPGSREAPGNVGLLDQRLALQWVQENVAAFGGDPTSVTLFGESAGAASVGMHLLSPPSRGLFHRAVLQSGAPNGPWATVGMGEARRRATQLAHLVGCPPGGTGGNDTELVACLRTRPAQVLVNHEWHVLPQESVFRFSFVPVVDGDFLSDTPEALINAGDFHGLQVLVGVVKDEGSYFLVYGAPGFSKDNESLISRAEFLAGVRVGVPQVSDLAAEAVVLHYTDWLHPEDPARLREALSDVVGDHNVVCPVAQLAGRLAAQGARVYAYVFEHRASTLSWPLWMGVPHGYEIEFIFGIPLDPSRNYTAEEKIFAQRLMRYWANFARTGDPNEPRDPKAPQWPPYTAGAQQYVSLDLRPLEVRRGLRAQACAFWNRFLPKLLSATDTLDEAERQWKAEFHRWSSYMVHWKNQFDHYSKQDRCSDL

Structure (SMILES) | pIC50
CCOC(=O)C1=C(C)Oc2nc3c(c(N)c2[C@H]1c1cccc([N+](=O)[O-])c1)CCCC3 | 5.72
CCOC(=O)C1=C(C)Oc2nc3c(c(N)c2[C@H]1c1ccccc1)CCC3 | 5.41
CCOC(=O)C1=C(C)Oc2nc3c(c(N)c2[C@H]1c1cccnc1OC)CCCC3 | 5.41
CCOC(=O)C1=C(C)Oc2nc3c(c(N)c2[C@H]1c1cccnc1Br)CCCC3 | 5.73
CCOC(=O)C1=C(C)Oc2nc3c(c(N)c2[C@H]1c1cccnc1Cl)CCCC3 | 5.67
CC1(C)CC(=O)C2=C(C1)Oc1nc3c(c(N)c1[C@H]2c1ccccc1)CCCC3 | 4.31
CC1(C)CC(=O)C2=C(C1)Oc1nc3c(c(N)c1[C@H]2c1ccc(F)cc1)CCCC3 | 4.16
CC1(C)CC(=O)C2=C(C1)Oc1nc3c(c(N)c1[C@H]2c1ccccc1C(F)(F)F)CCCC3 | 4.75
CC1(C)CC(=O)C2=C(C1)Oc1nc3c(c(N)c1[C@H]2c1cccc([N+](=O)[O-])c1)CCCC3 | 4.92
CC1(C)CC(=O)C2=C(C1)Oc1nc3c(c(N)c1[C@H]2c1ccc([N+](=O)[O-])cc1)CCCC3 | 4.03
Cc1ccc([C@H]2C3=C(CC(C)(C)CC3=O)Oc3nc4c(c(N)c32)CCCC4)cc1 | 4.29
COc1ccccc1[C@H]1C2=C(CC(C)(C)CC2=O)Oc2nc3c(c(N)c21)CCCC3 | 5.15
COc1cccc([C@H]2C3=C(CC(C)(C)CC3=O)Oc3nc4c(c(N)c32)CCCC4)c1 | 4.67
COc1ccc([C@H]2C3=C(CC(C)(C)CC3=O)Oc3nc4c(c(N)c32)CCCC4)cc1 | 4.39
CCOC(=O)C1=C(C)Nc2nc3c(c(N)c2[C@H]1c1ccccc1)CCCC3 | 7.10
CCOC(=O)C1=C(C)Nc2nc3c(c(N)c2[C@H]1c1ccc([N+](=O)[O-])cc1)CCCC3 | 6.22
CCOC(=O)C1=C(C)Nc2nc3c(c(N)c2[C@H]1c1ccc(C)cc1)CCCC3 | 7.04
CC1(C)CC(=O)C2=C(C1)Nc1nc3c(c(N)c1[C@H]2c1ccccc1)CCCC3 | 6.49
CC1(C)CC(=O)C2=C(C1)Nc1nc3c(c(N)c1[C@H]2c1ccc(F)cc1)CCCC3 | 6.27
Cc1ccc([C@H]2C3=C(CC(C)(C)CC3=O)Nc3nc4c(c(N)c32)CCCC4)cc1 | 6.64
COc1ccc([C@H]2C3=C(CC(C)(C)CC3=O)Nc3nc4c(c(N)c32)CCCC4)cc1 | 6.66
CC1(C)CC(=O)C2=C(C1)Nc1nc3c(c(N)c1[C@H]2c1ccncc1)CCCC3 | 6.22

Structure (SMILES) | pIC50
CCOC(=O)c1c(C)nc2nc3c(c(N)c2c1-c1ccc(C)cc1)CCCCC3 | 4.89
CCOC(=O)c1c(C)nc2nc3c(c(N)c2c1-c1ccccc1OC)CCCCC3 | 4.66
CCOC(=O)c1c(C)nc2nc3c(c(N)c2c1-c1ccc(Cl)cc1)CCCCC3 | 4.72
CCOC(=O)c1c(C)nc2nc3c(c(N)c2c1-c1cccc([N+](=O)[O-])c1)CCCCC3 | 4.85
CCOC(=O)c1c(C)nc2nc3c(c(N)c2c1-c1ccccc1)CCCCCC3 | 4.77
CCOC(=O)c1c(C)nc2nc3c(c(N)c2c1-c1ccc(OC)cc1)CCCCCC3 | 4.77
CCOC(=O)C1=C(C)Oc2nc3c(c(N)c2[C@H]1c1ccncc1)CCC3 | 5.18
CCOC(=O)C1=C(C)Oc2nc3c(c(N)c2[C@H]1c1cccs1)CCC3 | 4.56
CCOC(=O)C1=C(C)Oc2nc3c(c(N)c2[C@H]1c1ccc(OC)cc1)CCCC3 | 6.06
CCOC(=O)C1=C(C)Oc2nc3c(c(N)c2[C@H]1c1ccncc1)CCCC3 | 5.52
CCOC(=O)C1=C(C)Oc2nc3c(c(N)c2[C@H]1c1cccnc1)CCCC3 | 5.15
CCOC(=O)C1=C(C)Oc2nc3c(c(N)c2[C@H]1c1cccs1)CCCC3 | 4.61
CCOC(=O)C1=C(C)Oc2nc3c(c(N)c2[C@H]1c1ccco1)CCCC3 | 5.77
CCOC(=O)C1=C(C)Oc2nc3c(c(N)c2[C@H]1c1ccncc1)CCCCC3 | 5.07
CCOC(=O)C1=C(C)Oc2nc3c(c(N)c2[C@H]1c1cccnc1)CCCCC3 | 4.49
CCOC(=O)C1=C(C)Oc2nc3c(c(N)c2[C@H]1c1cccs1)CCCCC3 | 4.84
CCOC(=O)C1=C(C)Oc2nc3c(c(N)c2[C@H]1c1cccc(OC)c1)CCC3 | 4.62
CCOC(=O)C1=C(C)Oc2nc3c(c(N)c2[C@H]1c1ccc(OC)c(OC)c1)CCC3 | 4.57
CCOC(=O)C1=C(C)Oc2nc3c(c(N)c2[C@H]1c1cccc(OC)c1)CCCC3 | 5.11
CCOC(=O)C1=C(C)Oc2nc3c(c(N)c2[C@H]1c1ccc(OC)c(OC)c1)CCCC3 | 5.34
CCOC(=O)C1=C(C)Oc2nc3c(c(N)c2[C@H]1c1cccc(OC)c1)CCCCC3 | 4.89
CCOC(=O)C1=C(C)Oc2nc3c(c(N)c2[C@H]1c1ccccc1OC)CCCCC3 | 4.68

Structure (SMILES) | pIC50
CCOC(=O)C1=C(C)Oc2nc3c(c(N)c2[C@H]1c1ccc(OC)c(OC)c1)CCCCC3 | 4.48
CCOC(=O)C1=C(C)Oc2nc3c(c(N)c2[C@H]1c1ccccc1)CCCC3 | 5.81
CCOC(=O)C1=C(C)Oc2nc3c(c(N)c2[C@H]1c1ccc(C)cc1)CCCC3 | 5.74
CCOC(=O)C1=C(C)Oc2nc3c(c(N)c2[C@H]1c1ccc(Cl)cc1)CCCC3 | 5.71
CCOC(=O)C1=C(C)Oc2nc3c(c(N)c2[C@H]1c1ccc(C#N)cc1)CCCC3 | 5.46
CCOC(=O)c1c(C)nc2nc3c(c(N)c2c1-c1ccc(OC)cc1)CCCCC3 | 5.87
CCOC(=O)c1c(C)nc2nc3c(c(N)c2c1-c1ccc(OC)c(OC)c1)CCCC3 | 5.89
CCOC(=O)c1c(C)nc2nc3c(c(N)c2c1-c1ccc(F)cc1)CCCC3 | 6.15
CCOC(=O)c1c(C)nc2nc3c(c(N)c2c1-c1ccc(F)cc1)CCCCC3 | 5.27
CCOC(=O)c1c(C)nc2nc3c(c(N)c2c1-c1ccc(Cl)cc1)CCCC3 | 5.89
CCOC(=O)c1c(C)nc2nc3c(c(N)c2c1-c1ccc(OC)c(OC)c1)CCCCC3 | 5.19
Cc1nc2nc3c(c(N)c2c(-c2ccccc2)c1C(=O)OC(C)C)CCCC3 | 5.92
CCOC(=O)c1c(C)nc2nc3c(c(N)c2c1-c1ccccc1)CCCC3 | 6.09
CCOC(=O)c1c(C)nc2nc3c(c(N)c2c1-c1ccccc1)CCCCC3 | 4.68
CCOC(=O)c1c(C)nc2nc3c(c(N)c2c1-c1ccc(OC)cc1)CCCC3 | 5.05
CCOC(=O)c1c(C)nc2nc3c(c(N)c2c1-c1ccncc1)CCC3 | 5.09
CCOC(=O)c1c(C)nc2nc3c(c(N)c2c1-c1ccncc1)CCCC3 | 5.85
CCOC(=O)c1c(C)nc2nc3c(c(N)c2c1-c1ccccc1)CCC3 | 4.92
CCOC(=O)c1c(C)nc2nc3c(c(N)c2c1-c1ccc(OC)cc1)CCC3 | 4.86
CCOC(=O)c1c(C)nc2nc3c(c(N)c2c1-c1cccc(OC)c1)CCCC3 | 5.92
CCOC(=O)c1c(C)nc2nc3c(c(N)c2c1-c1cccc([N+](=O)[O-])c1)CCCC3 | 6.03
CCOC(=O)c1c(C)nc2nc3c(c(N)c2c1-c1ccncc1)CCCCC3 | 5.29
